Measured values: the Kinase Knowledgebase extract (Sharma et al. 2016)

What was measured:
MAPK14 (human) [1] = target: MAPK14 (human) (UniProt Q16539); test: Inhibition of TNF Production (U937 Cells)
MAPK14 (human) [2] = target: MAPK14 (human) (UniProt Q16539); test: Inhibition of TNF Production (PBMC)
MAPK14 = MAPK14 (UniProt Q16539); test: p38 alpha Inhibition
Sequence of MAPK14 (Q16539 whole entry, looked up): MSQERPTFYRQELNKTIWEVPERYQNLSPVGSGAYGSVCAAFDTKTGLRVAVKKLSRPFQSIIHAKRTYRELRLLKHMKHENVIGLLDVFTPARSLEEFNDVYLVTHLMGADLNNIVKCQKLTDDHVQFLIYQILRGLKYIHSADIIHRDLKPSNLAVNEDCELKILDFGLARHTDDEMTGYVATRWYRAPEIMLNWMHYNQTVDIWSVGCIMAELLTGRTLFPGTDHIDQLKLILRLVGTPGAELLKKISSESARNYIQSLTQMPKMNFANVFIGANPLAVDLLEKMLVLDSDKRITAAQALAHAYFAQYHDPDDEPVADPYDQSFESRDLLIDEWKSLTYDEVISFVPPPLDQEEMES

Sequence of MAPK14 (human) (Q16539 whole entry, looked up): as above

Row | IC50 (MAPK14 (human) [1]) | IC50 (MAPK14 (human) [2]) | IC50 (MAPK14) | ID50 (MAPK14 (human) [2]) | SMILES
1 | 240 nM | 1300 nM |  |  | Fc1ccc(-n2nccc2-c2ccnc(NCc3ccccc3)c2)cc1
2 |  | > 10000 nM |  |  | Cc1cccc(-n2nc(C)cc2-c2ccnc(S(C)(=O)=O)c2)c1
3 | 17900 nM | 100 nM |  |  | CNc1cc(-c2cc(C)nn2-c2ccc(C)cc2)ccn1
4 | 1310 nM | 1900 nM |  |  | COc1cc(-c2cc(C)nn2-c2cccc(C)c2)ccn1
5 |  | 200 nM |  |  | Cc1ccc(-n2nc(C)cc2-c2ccnc(NCCO)c2)cc1
6 | 10000 nM | > 10000 nM |  |  | CCNc1cc(-c2ccncc2)n(-c2ccc(F)cc2)n1
7 | 10000 nM |  |  |  | COC(=O)c1cnn(-c2ccc(F)cc2)c1-c1ccncc1
8 |  | 2900 nM |  |  | Cc1ccc(-n2nc(C)cc2-c2ccnc(Cl)c2)cc1
9 | > 10000 nM | > 10000 nM |  |  | Cc1cc(-c2ccnc(C#N)c2)n(-c2ccc(F)cc2)n1
10 | 10000 nM |  |  |  | O=C(O)c1cnn(-c2ccc(F)cc2)c1-c1ccncc1
11 |  | 5000 nM |  |  | Cc1cccc(-n2nc(C)cc2-c2ccnc(C(N)=O)c2)c1
12 |  | 2200 nM |  |  | Cc1cc(-c2ccnc(N=[N+]=[N-])c2)n(-c2cccc(F)c2)n1
13 |  | 600 nM |  |  | Cc1cc(-c2ccnc(NCc3cccnc3)c2)n(-c2cccc(F)c2)n1
14 |  | 4000 nM |  |  | Cc1cnn(-c2cccc(F)c2)c1-c1ccncc1
15 | 2640 nM | > 10000 nM |  |  | Cc1cccc(-n2nc(C)cc2-c2ccnc(OCc3ccccc3)c2)c1
16 | 10000 nM | 8100 nM |  |  | Fc1ccc(-n2nccc2-c2ccnc(Cl)c2)cc1
17 |  | > 10000 nM |  |  | Cc1ccc(-n2nc(C)cc2-c2cccc(N)c2)cc1
18 | 10000 nM | 2400 nM |  |  | Cc1cccc(-n2nc(C)cc2-c2cc[nH]c(=O)c2)c1
19 |  | 100 nM |  |  | Cc1cccc(-n2nc(C)cc2-c2ccnc(NCc3ccccc3)c2)c1
20 |  | 500 nM |  |  | Cc1cccc(-n2nc(C)cc2-c2ccnc(N)c2)c1
21 | > 10000 nM | > 10000 nM |  |  | NC(=O)c1cnn(-c2ccc(F)cc2)c1-c1ccncc1
22 | 660 nM | 600 nM |  |  | Cc1cccc(-n2ncc(C)c2-c2ccncc2)c1

Row | IC50 (MAPK14 (human) [1]) | IC50 (MAPK14 (human) [2]) | IC50 (MAPK14) | ID50 (MAPK14 (human) [2]) | SMILES
23 | 1150 nM | 700 nM | 16500 nM |  | CCc1cnn(-c2cccc(F)c2)c1-c1ccncc1
24 | 10000 nM | > 10000 nM |  |  | Cc1cccc(-n2nc(C)cc2-c2ccnc(N(C)Cc3ccccc3)c2)c1
25 | 720 nM | 200 nM |  |  | CCNc1cc(-c2cc(C)nn2-c2ccc(C)cc2)ccn1
26 | > 10000 nM |  |  |  | Cc1cc(-c2ccnc(Cl)c2)n(-c2cccc(F)c2)n1
27 | 10000 nM | 100 nM |  |  | Cc1cnn(-c2ccc(F)cc2)c1-c1ccncc1
28 | 210 nM | 100 nM |  |  | Cc1cccc(-n2nc(C)cc2-c2ccnc(NCCO)c2)c1
29 | 10000 nM | > 10000 nM |  |  | Fc1ccc(-n2ncc(N3CCNCC3)c2-c2ccncc2)cc1
30 | 200 nM | 300 nM |  |  | Cc1cc(-c2ccnc(NCc3ccccc3)c2)n(-c2ccc(Cl)cc2)n1
31 | 50 nM | 20 nM |  |  | Cc1cccc(-n2nc(C)cc2-c2ccnc(NCCc3ccccc3)c2)c1
32 | 1650 nM | 1700 nM |  |  | Cc1cccc(-n2nc(C)cc2-c2ccnc(C#N)c2)c1
33 | 860 nM |  |  | 100 nM | Cc1cc(-c2ccnc(NCCc3ccccc3)c2)n(-c2ccc(Cl)cc2)n1
34 |  | 800 nM |  |  | Cc1cccc(-n2nc(C)cc2-c2ccnc(N(C)CCc3ccccc3)c2)c1
35 |  | 1500 nM |  |  | Cc1ccc(-n2nc(C)cc2-c2ccnc(NCc3cccnc3)c2)cc1
36 | 830 nM | 1300 nM | 1480 nM |  | CCCc1cnn(-c2cccc(F)c2)c1-c1ccncc1
37 |  | > 10000 nM |  |  | Cc1ccc(-n2nc(C)cc2-c2ccnc(N(C)C)c2)cc1
38 | 10000 nM | > 10000 nM |  |  | O=C(c1cnn(-c2ccc(F)cc2)c1-c1ccncc1)N1CCNCC1
39 | 10000 nM | 3400 nM |  |  | Cc1cccc(-n2nc(C)cc2-c2ccnc(N(C)C)c2)c1
40 |  | 1100 nM |  |  | Cc1ccc(-n2nc(C)cc2-c2ccnc(NCc3ccccc3)c2)cc1
41 | 480 nM | 100 nM |  |  | Cc1cc(-c2ccnc(NCCO)c2)n(-c2ccc(Cl)cc2)n1
42 |  | > 10000 nM |  |  | Cc1cnn(Cc2ccccc2)c1-c1ccncc1
43 |  | 10000 nM |  |  | Fc1ccc(-n2nccc2-c2ccnc(NCCc3ccccc3)c2)cc1
